Tests used:
proMMP9 = biological target: T1, proMMP9 (Homo sapiens, UniProt P14780); assay: Activation of proMMP9 by human fetal lung fibroblast (HFL-1) cultures (Western blot); type: cell-based
T1 construct: host or cells: HFL-1 human fetal lung fibroblasts, TNFα plus human neutrophil elastase
Protocol: Activation of proMMP9 by Human Fetal Lung Fibroblast Cultures Example 64 was assessed additionally for ability to block the maturation of proMMP9 to active MMP9 in cultures of human fetal lung fibroblasts (HFL-1, American Type Culture Collection #CCL-153). Unlike rat synoviocytes, HFL-1 cells were unable to process proMMP9 to the active form without addition of neutrophil elastase. […] Rather, the function of elastase in this assay may be to inactivate tissue inhibitors of matrix metalloproteinases (TIMPs) that repress endogenous pathways of MMP9 activation (Am J Respir Grit Care Med; 1999; 159:1138-46).
HLF-1 were maintained in monolayer culture in DMEM with 10% FCS and were used between passage numbers 5-15. HLF-1 were embedded in collagen gels as described for rat SCW synoviocytes (vida supra). Half mL gels containing 0.4 million cells were dislodged into wells of 12 well Costar plates containing 1 mL/well of DMEM adjusted to contain 0.05% BSA and 100 ng/mL human TNFα (R&D Systems Cat #210-TA/CF). After overnight culture (37° C. and 5% CO2) wells were adjusted to contain an additional 0.5 mL of DMEM containing 0.05% BSA and with or without 13.2 μM Example 64 (final concentration was 3.3 μM Example 64). Next, cultures were adjusted to contain 30 nM human elastase (Innovative Research). The plates were cultured an additional 72 hrs, at which time MMP9 secreted into the conditioned media was bound to gelatin-sepharose and evaluated by Western blot analysis as described for the rat synoviocyte cultures (vida supra). mAb-51/82 detected three forms of MMP9 in HFL-1 cultures.
A second experiment was performed to determine if the 80 kD form was mature active MMP9 and to determine the potency of Example 64 as an inhibitor of MMP9 maturation in this assay. HFL-1 cells embedded in collagen gels were cultured as described above in the presence of TNFα overnight and the cultures were then adjusted to contain 30 nM elastase and graded concentrations of Example 64 for an additional 72 hrs at which time MMP9 secreted into the conditioned media was bound to gelatin-sepharose and evaluated by Western blot analysis for active MMP9 using pAb-1246 raised against the N-terminal neoepitope of active MMP9 (Table 5). In the absence of Example 64, pAb-1246 readily detected MMP9 with an electrophoretic mobility of approximately 80 kD. […] Inhibition occurred over a dose range with an IC50 of approximately 0.3 μM Example 64.

[1] = biological target: T2, MMP9 mediated gelatinase activity (Rattus norvegicus, UniProt P50282); assay: Liver in situ zymography of SCW-induced rats dosed with compound; type: in vivo; conditions: for Intensity (RLU × 10^6) Rat 1 / Intensity (RLU × 10^6) Rat 2 / Intensity (RLU × 10^6) Rat 3 / Intensity (RLU × 10^6) Mean: Day 25-28, liver; for Intensity (RLU × 10^6) Mean: n=3
T2 construct: from tissue; host or cells: liver cryosections of female Lewis rats
Source text: In situ zymography provides an alternative approach to assess active MMP9 in tissues (Frederiks). Tissue sections are overlain with fluorescene-conjugated gelatin wherein the conjugation is sufficiently dense to cause the fluorescene to be dye-quenched (DQ). Proteolytic degradation of the DQ-gelatin releases the fluorescene from the quenching effect giving rise to bright green fluorescence at the site of degradation. Because in situ zymography requires the use of frozen sections, calcified tissues are problematic. However, an additional feature of the SCW arthritis model is the development of hepatic granulomatous disease (J Immunol; 1986; 137:2199-2209), and MMP9 reportedly plays a role in macrophage recruitment in the granulomas response to mycobacteria (Infect Immun; 2006; 74:6135-6144). Consequently, granulomatous livers from SCW-treated rats were assessed for active MMP9 by in situ zymography.
As described above, Female Lewis (LEW/N) rats, 5-6 weeks of age (80-100 g) were injected (i.p.) with saline or SCW PG-PS. On day 28, when the granulomatous response was well established, animals were sacrificed and livers were frozen in OCT cryo-sectioning medium and 10 μm sections were cut on a Cryome HM 500 M cryotome and mounted on glass microscope slides. Sections were air dried briefly. MMP9 was confirmed as the source of the gelatinase activity in the liver by treating liver sections with monoclonal antibodies directed against the active site of the two major gelatinases MMP9 and MMP2. Liver sections overlain with 50 μL of 100 μg/mL neutralizing mouse monoclonal antibodies directed against MMP9 (Calbiochem, clone 6-6B), or MMP2 (Millipore, clone CA-4001), or with PBS for 1 hr at room temperature. Tissues were rinsed once with PBS, blotted, and briefly air dried and then overlain with DQ-gelatin (Invitrogen) dissolved to 1 mg/mL in deionized water and then diluted 1:10 in 1% wt/vol low gelling point agarose type VII (Sigma) in PBS. The sections were covered with coverslips, incubated in the dark at room temperature for 20 min, and imaged on an Olympus IX80 inverted microscope fitted with fluorescence optics, using SlideBook™ imaging software (Intelligent Imaging Innovations, Inc., Philadelphia, Pa.; version 5.0). Fluorescence intensity was determined (Table 8). When compared to a saline-treated rat, gelatinase activity was abundantly expressed in granulomatous liver sections obtained from a rat with SCW arthritis.
Next, liver in situ zymography was used to assess the relative presence of active MMP9 in rats dosed with vehicle vs. Example 64. Female Lewis (LEW/N) rats, 5-6 weeks of age (80-100 g) were injected (i.p.) with saline or SCW PG-PS. Commencing on day 25, randomized groups of rats (n=3 rats/group) received vehicle or 20 or 50 mg/kg Example 64 BID by oral gavage. Vehicle consisted of an aqueous mixture containing 2% (v:v) N-methylpyrrolidone, 5% (v:v) glycerine, and 20% (w:v) captisol. Treatment continued daily through the morning of day 28. Four hrs after the AM dose on day 28, rats were sacrificed and livers assessed for active MMP9 by in situ zymography (Table 9). Gelatinase activity was increased markedly in SCW-induced rats, but activity was reduced by approximately 80% in animals treated with 50 mg/kg Example 64.

T1 sequence (P14780 20-707 limits assumed): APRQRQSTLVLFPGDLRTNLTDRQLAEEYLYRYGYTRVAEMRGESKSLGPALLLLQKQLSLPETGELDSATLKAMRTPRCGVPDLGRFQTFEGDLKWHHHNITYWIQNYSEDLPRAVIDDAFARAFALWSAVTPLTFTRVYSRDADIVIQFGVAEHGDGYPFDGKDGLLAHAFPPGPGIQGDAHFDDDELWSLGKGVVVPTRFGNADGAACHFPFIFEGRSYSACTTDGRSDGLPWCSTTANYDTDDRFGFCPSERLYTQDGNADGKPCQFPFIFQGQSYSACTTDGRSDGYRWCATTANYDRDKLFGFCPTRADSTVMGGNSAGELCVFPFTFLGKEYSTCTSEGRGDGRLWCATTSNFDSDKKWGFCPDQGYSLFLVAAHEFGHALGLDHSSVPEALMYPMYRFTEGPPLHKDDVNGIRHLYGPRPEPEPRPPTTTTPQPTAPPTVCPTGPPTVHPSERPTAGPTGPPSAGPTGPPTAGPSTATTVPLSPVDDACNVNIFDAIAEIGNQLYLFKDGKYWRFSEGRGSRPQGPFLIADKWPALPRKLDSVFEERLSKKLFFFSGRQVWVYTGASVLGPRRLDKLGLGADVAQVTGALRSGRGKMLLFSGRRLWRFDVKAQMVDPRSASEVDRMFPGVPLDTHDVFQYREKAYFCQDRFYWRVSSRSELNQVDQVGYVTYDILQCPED
T2 sequence (P50282 108-708): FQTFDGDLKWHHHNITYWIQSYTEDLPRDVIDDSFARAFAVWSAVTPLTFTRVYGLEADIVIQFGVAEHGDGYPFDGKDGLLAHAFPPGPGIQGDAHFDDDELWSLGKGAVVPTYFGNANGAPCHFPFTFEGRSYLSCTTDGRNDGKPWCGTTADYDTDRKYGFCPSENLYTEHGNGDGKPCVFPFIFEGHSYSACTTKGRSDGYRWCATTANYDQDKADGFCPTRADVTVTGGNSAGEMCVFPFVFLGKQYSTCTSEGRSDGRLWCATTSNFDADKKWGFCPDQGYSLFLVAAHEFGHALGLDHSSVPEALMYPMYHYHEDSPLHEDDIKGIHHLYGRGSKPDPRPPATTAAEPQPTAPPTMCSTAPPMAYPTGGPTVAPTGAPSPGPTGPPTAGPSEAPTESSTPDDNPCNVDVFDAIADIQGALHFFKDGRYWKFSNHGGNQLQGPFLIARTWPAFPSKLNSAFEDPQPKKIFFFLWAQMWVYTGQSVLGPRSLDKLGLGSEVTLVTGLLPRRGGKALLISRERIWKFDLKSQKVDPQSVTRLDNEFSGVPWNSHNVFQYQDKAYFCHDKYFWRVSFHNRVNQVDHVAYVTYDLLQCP

SMILES: Cc1nc(C)c(-c2csc(Nc3cc(S(N)(=O)=O)ccc3OC(C)C)n2)s1 [Example 64, 3-(2′,4′-Dimethyl-[4,5′]bithiazolyl-2-ylamino)-4-isopropoxy-benzenesulfonamide.HBr]
- Signal (INT*mm^2) Total (proMMP9; 3.3 μM, HFL-1, mAb-L51/82, 30 nM elastase, 72 hrs): 91346 INT*mm^2
- inhibition at 0.12 µM (proMMP9; HFL1, 0.12 μM, HFL-1, 80 kD band, pAb-1246): 0%
- inhibition at 0.37 µM (proMMP9; HFL1, 0.37 μM, HFL-1, 80 kD band, pAb-1246): 73%
- inhibition at 1.1 µM (proMMP9; HFL1, 1.1 μM, HFL-1, 80 kD band, pAb-1246): 99%
- inhibition at 3.3 µM (proMMP9; HFL1, 3.3 μM, HFL-1, 80 kD band, pAb-1246): 100%
- inhibition at 10 µM (proMMP9; HFL1, 10 μM, HFL-1, 80 kD band, pAb-1246): 100%
- Intensity (RLU × 10^6) Rat 1 ([1]; 20 mg/kg BID oral): 43.0 RLU × 10^6
- Intensity (RLU × 10^6) Rat 2 ([1]; 20 mg/kg BID oral): 69.0 RLU × 10^6
- Intensity (RLU × 10^6) Rat 3 ([1]; 20 mg/kg BID oral): 53.7 RLU × 10^6
- Intensity (RLU × 10^6) Mean ([1]; 20 mg/kg BID oral): 55.2 RLU × 10^6
- reduction of gelatinase activity in liver ([1]; 50 mg/kg BID oral, Day 25-28): approximately 80%
- Intensity (RLU × 10^6) Rat 1 ([1]; 50 mg/kg BID oral): 3.2 RLU × 10^6
- Intensity (RLU × 10^6) Rat 2 ([1]; 50 mg/kg BID oral): 25.6 RLU × 10^6
- Intensity (RLU × 10^6) Rat 3 ([1]; 50 mg/kg BID oral): 4.5 RLU × 10^6
- Intensity (RLU × 10^6) Mean ([1]; 50 mg/kg BID oral): 11.1 RLU × 10^6

Reference: patent US20120129842A1, “BISTHIAZOLE INHIBITORS OF PRO-MATRIX METALLOPROTEINASE ACTIVATION” (priority 2010, published 2012)
